Assay results taken from article PMC4684357, “Comparative Evaluation of the Antimicrobial Activity of Different Antimicrobial Peptides against a Range of Pathogenic Bacteria” (PLoS ONE, 2015).
Read-outs that look alike come from different tables or passages of the source. Residues, ends and D or L forms follow the SMILES beside them. No end group written: not given here.

Assays:
E. coli ATCC25922 [1] = tested on: E. coli ATCC25922
Protocol: The minimum inhibitory concentrations (MICs) of the AMPs were measured in 96-well microtiter plates according to the Clinical and Laboratory Standards Institute (CLSI, formerly National Committee for Clinical Laboratory Standards [NCCLS]). Briefly, liquid Mueller-Hinton-II medium containing increasing concentrations of AMPs is inoculated with a defined number of cells (approx. 10^5 CFUs/ml) in 96-well microtiter plates (polypropylene), whereas each plate also includes a positive growth control and a negative control (sterile control). After incubation, the MIC is determined by the lowest concentration showing no visible growth. All plates were incubated for 18–20 hours, except the F. psychrophilum plates which were incubated for 72 hours. […]

E. coli ATCC25922 [2] = assay type: cell-based, Escherichia coli
Source text: (§1) The Yersinia ruckeri strain was kindly provided by Prof. Kurt Buchmann, University of Copenhagen, Faculty of Health and Medical Sciences, and the Flavobacterium psychrophilum strain was kindly provided by Prof. Inger Dalsgaard, DTU, Denmark. BW25113 is the Escherichia coli wild-type strain, a derivative of the F^-,λ^- E. coli K12 strain BD792 which was used in generating the KEIO collection. E. coli ATCC25922 is a clinical isolate, serotype O6 and is often used as control strain in antimicrobial susceptibility testing. All strains were grown in Mueller-Hinton-II medium, except L. monocytogenes which was grown in BHI medium and F. psychrophilum which was grown in TYES medium (Tryptone yeast extract plus salts). Incubation took place aerobically at 37°C, except for Y. ruckeri and A. salmonicida, which were grown aerobically at RT (20°C), C. jejuni NCTC11168 which was grown under microaerophilic conditions at 42°C and F. psychrophilum 1947 which was grown under aerobic conditions at 15°C. All plates were incubated for 18–20 hours, except the F. psychrophilum plates, which were incubated for 72 hours.
All plates were incubated for 18–20 hours, except the F. psychrophilum plates which were incubated for 72 hours.
All the MIC measurements were carried out in duplicate.

ATCC25922 ΔrfaE = assay type: cell-based, Escherichia coli; settings: E. coli ATCC25922 ΔrfaE; CLSI; triplicates
Source text: as §1
(§2) The minimum inhibitory concentrations (MICs) of the AMPs were measured in 96-well microtiter plates according to the Clinical and Laboratory Standards Institute (CLSI, formerly National Committee for Clinical Laboratory Standards [NCCLS]). Briefly, liquid Mueller-Hinton-II medium containing increasing concentrations of AMPs is inoculated with a defined number of cells (approx. 10^5 CFUs/ml) in 96-well microtiter plates (polypropylene), whereas each plate also includes a positive growth control and a negative control (sterile control). After incubation, the MIC is determined by the lowest concentration showing no visible growth. All plates were incubated for 18–20 hours, except the F. psychrophilum plates which were incubated for 72 hours.
(§3) Construction of knock-out mutants of E. coli ATCC25922 were constructed using the λ-Red recombinase gene replacement system. Primers for amplification of the npt gene of pKD4 are listed in S1 Table. The correct double-crossover and recombination event was confirmed by primers listed in S1 Table and by sequencing. Finally, the kanamycin cassette was removed.

ATCC25922 ΔrfaC = assay type: cell-based, Escherichia coli; settings: E. coli ATCC25922 ΔrfaC; CLSI; triplicates
Source text: as §1, §2, §3

ATCC25922 ΔrfaG = assay type: cell-based, Escherichia coli; settings: E. coli ATCC25922 ΔrfaG; CLSI; triplicates
Source text: as §1, §2, §3

ATCC25922 ΔrfaF = assay type: cell-based, Escherichia coli; settings: E. coli ATCC25922 ΔrfaF; CLSI; triplicates
Source text: as §1, §2, §3

BW25113 ΔrfaG = assay type: cell-based, Escherichia coli; settings: E. coli BW25113 ΔrfaG; CLSI; triplicates
Source text: as §1, §2

BW25113 ΔrfaF = assay type: cell-based, Escherichia coli; settings: E. coli BW25113 ΔrfaF; CLSI; triplicates
Source text: as §1, §2

BW25113 ΔrfaC = assay type: cell-based, Escherichia coli; settings: E. coli BW25113 ΔrfaC; CLSI; triplicates
Source text: as §1, §2

BW25113 ΔrfaE = assay type: cell-based, Escherichia coli; settings: E. coli BW25113 ΔrfaE; CLSI; triplicates
Source text: as §1, §2

BW25113 wild-type = assay: MIC in LPS backgrounds; assay type: cell-based, Escherichia coli; settings: E. coli BW25113 wild-type; CLSI; triplicates
Source text: as §1, §2

trypsin = target: T1, trypsin (Bos taurus, UniProt P00760); assay: Protease stability: MIC after incubation with trypsin; assay type: in vitro ADME; settings: for Antimicrobial Activity MIC: trypsin, protease:AMP 1:100 (w/w), trypsin-ultra reaction buffer, 37°C, test strain E. coli ATCC25922, triplicates
T1 construct: purchased NEB P8101
T1 sequence (P00760 24-246): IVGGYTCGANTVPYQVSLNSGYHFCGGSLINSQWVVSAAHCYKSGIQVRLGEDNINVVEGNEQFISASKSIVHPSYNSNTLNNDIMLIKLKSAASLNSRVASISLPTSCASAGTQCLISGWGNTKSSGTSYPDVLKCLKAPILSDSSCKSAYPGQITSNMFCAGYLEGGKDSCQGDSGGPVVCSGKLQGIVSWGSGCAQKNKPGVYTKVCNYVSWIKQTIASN
Protocol: as §2
(§4) AMPs were heated at 70°C or 90° for 5, 15 or 30 minutes. An untreated control, which was kept at RT, was used as a control. After incubation at 70°C or 90°C, the minimum inhibitory concentrations (MICs) of the peptides were measured in 96-well microtiter plates according the Clinical and Laboratory Standards Institute (CLSI, formerly National Committee for Clinical Laboratory Standards [NCCLS]) […] After incubation, the samples were cooked for 10 minutes at 90°C to inactivate the protease. Afterwards, the antimicrobial activity was determined by measuring the minimal inhibitory concentration (see Antimicrobial susceptibility testing)). E. coli ATCC25922 was used as a test strain.

proteinase K = target: T2, proteinase K (Parengyodontium album, UniProt P06873); assay: Protease stability: MIC after incubation with proteinase K; assay type: in vitro ADME; settings: for Antimicrobial Activity MIC: proteinase K, protease:AMP 1:100 (w/w), 100 mM Tris-HCl pH 7.5, 37°C, test strain E. coli ATCC25922, triplicates
T2 construct: purchased NEB P8107S
Protocol: as §2, §4

T2 sequence (P06873 106-384): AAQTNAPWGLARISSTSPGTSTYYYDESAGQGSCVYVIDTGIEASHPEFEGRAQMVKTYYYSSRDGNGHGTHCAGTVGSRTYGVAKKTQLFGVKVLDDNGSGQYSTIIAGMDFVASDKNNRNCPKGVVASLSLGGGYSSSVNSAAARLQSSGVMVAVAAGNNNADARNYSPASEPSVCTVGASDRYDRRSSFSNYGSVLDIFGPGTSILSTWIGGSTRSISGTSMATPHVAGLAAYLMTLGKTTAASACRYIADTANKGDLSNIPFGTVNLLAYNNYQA

Compound | Antimicrobial Activity MIC (E. coli ATCC25922 [1]) | Antimicrobial Activity MIC (E. coli ATCC25922 [2]) | Antimicrobial Activity MIC (ATCC25922 ΔrfaE) | Antimicrobial Activity MIC (ATCC25922 ΔrfaC) | Antimicrobial Activity MIC (ATCC25922 ΔrfaG) | Antimicrobial Activity MIC (ATCC25922 ΔrfaF) | Antimicrobial Activity MIC (BW25113 ΔrfaG) | Antimicrobial Activity MIC (BW25113 ΔrfaF) | Antimicrobial Activity MIC (BW25113 ΔrfaC) | Antimicrobial Activity MIC (BW25113 ΔrfaE) | Antimicrobial Activity MIC (BW25113 wild-type) | further results
CC[C@H](C)[C@H](NC(=O)CNC(=O)[C@H](CCC(=O)O)NC(=O)[C@H](CO)NC(=O)[C@@H](NC(=O)[C@H](CCCNC(=N)N)NC(=O)[C@H](CCCCN)NC(=O)[C@H](CCCCN)NC(=O)[C@H](C)NC(=O)[C@H](CO)NC(=O)[C@H](CC(N)=O)NC(=O)[C@H](CCC(=O)O)NC(=O)[C@H](CC(C)C)NC(=O)[C@H](CCCCN)NC(=O)[C@H](CCCCN)NC(=O)[C@H](C)NC(=O)[C@@H](NC(=O)[C@H](CCCCN)NC(=O)[C@H](CO)NC(=O)[C@H](CC(C)C)NC(=O)[C@H](Cc1c[nH]c2ccccc12)NC(=O)[C@@H](N)CO)[C@@H](C)O)[C@@H](C)CC)C(=O)N[C@@H](C)C(=O)N[C@H](C(=O)N[C@@H](C)C(=O)N[C@H](C(=O)N[C@@H](CCC(N)=O)C(=O)NCC(=O)NCC(=O)N1CCC[C@H]1C(=O)N[C@@H](CCCNC(=N)N)C(=O)O)[C@@H](C)CC)[C@@H](C)CC [Cecropin P1] (H-SWLSKTAKKLENSAKKRISEGIAIAIQGGPR-OH) | 16 µg/mL | 32 µg/mL | 8 µg/mL | 8 µg/mL | 16 µg/mL | 8 µg/mL | 16 µg/mL | 4 µg/mL | 8 µg/mL | 8 µg/mL | 16 to 32 µg/mL | –
GLRKKFRKTRKRIQKLGRKIGKTGRKVWKAWREYGQIPYPCRI [Cap11] | 8 µg/mL | 16 µg/mL | 4 µg/mL | 4 µg/mL | 8 µg/mL | 4 µg/mL | 8 µg/mL | 8 µg/mL | 8 µg/mL | 8 µg/mL | 8 µg/mL | –
CC[C@H](C)[C@H](NC(=O)[C@H](CCCCN)NC(=O)[C@H](Cc1c[nH]c2ccccc12)NC(=O)[C@H](CCCNC(=N)N)NC(=O)[C@@H](N)CCCNC(=N)N)C(=O)N[C@H](C(=O)N[C@H](C(=O)N[C@H](C(=O)N[C@@H](CCCNC(=N)N)C(=O)N[C@@H](Cc1c[nH]c2ccccc12)C(=O)N[C@@H](CCCNC(=N)N)C(=O)N[C@@H](CCCNC(=N)N)C(N)=O)[C@@H](C)CC)C(C)C)C(C)C [Sub5-NH2] (H-RRWKIVVIRWRR-NH2) | – | 4 µg/mL | 1 µg/mL | 1 µg/mL | 1 µg/mL | 1 µg/mL | 2 µg/mL | 2 µg/mL | 2 µg/mL | 2 µg/mL | 4 to 8 µg/mL | –
CNC(C)C1CCC(N)C(OC2C(N)CC(N)C(OC3OCC(C)(O)C(NC)C3O)C2O)O1 (stereo not shown) [Gentamicin] | – | – | – | – | – | – | – | – | – | – | – | antimicrobial activity after protease (in words) (trypsin; trypsin for 30 minutes, control antibiotic): retained its full antimicrobial activity; Antimicrobial Activity MIC (trypsin; 0 min): 1 µg/mL; Antimicrobial Activity MIC (trypsin; 0.5 min, then 10 min 90°C): 1 µg/mL; Antimicrobial Activity MIC (trypsin; 2 min, then 10 min 90°C): 1 µg/mL; Antimicrobial Activity MIC (trypsin; 5 min, then 10 min 90°C): 1 µg/mL; Antimicrobial Activity MIC (trypsin; 15 min, then 10 min 90°C): 1 µg/mL; Antimicrobial Activity MIC (trypsin; 30 min, then 10 min 90°C): 1 µg/mL; antimicrobial activity after protease (in words) (proteinase K; proteinase K for 30 minutes, control antibiotic): retained its full antimicrobial activity; Antimicrobial Activity MIC (proteinase K; 0 min): 1 µg/mL; Antimicrobial Activity MIC (proteinase K; 0.5 min, then 10 min 90°C): 1 µg/mL; Antimicrobial Activity MIC (proteinase K; 2 min, then 10 min 90°C): 1 µg/mL; Antimicrobial Activity MIC (proteinase K; 5 min, then 10 min 90°C): 1 µg/mL; Antimicrobial Activity MIC (proteinase K; 15 min, then 10 min 90°C): 1 µg/mL; Antimicrobial Activity MIC (proteinase K; 30 min, then 10 min 90°C): 1 µg/mL
